In patent publication US20250109118A1, “HETEROCYCLIC COMPOUNDS AS SHP2 INHIBITORS, COMPOSITIONS COMPRISING THE HETEROCYCLIC COMPOUND, AND METHODS OF USE THEREOF” (JS INNOMED HOLDINGS LTD., priority 2021, published 2025):

Tested on: MiaPaCa-2 cells
Test: MiaPaCa-2 Cell proliferation assay in 3D culture (CCK8)
Format: cell-based
Settings: Homo sapiens, MIA PaCa-2, 120 h; 3D spheroid culture, 5 days with compound, CCK8 readout
Description: MiaPaCa-2 Cell proliferation assay in 3D culture. To evaluate cell viability, MiaPaCa-2 cells in logarithmic growth phase were seeded at optimal density and grown in as spheroids. Cells were incubated for 24 hours prior to the addition of different concentrations of the compounds. Cells were cultured with the compounds for 5 days and the cell viability was assessed using CCK8. Briefly, 2500 cells were seeded in round bottom ultra-low attachment 96 well plates (coming) in growth media supplemented with 10% FBS and incubated at 37° C. for 24 hours. The compounds were dissolved in DMSO (Sigma) to obtain 10 mM stock solution. Then the compounds were serially diluted in 3-fold to ten concentrations; 5 μL of the dilution above was transferred to 95 uL culture media to obtain the 50× compound stock solution; 4 uL of the 50× compound above was then transferred to the wells containing cells with 196 μL of the culture medium to obtain the final 1× concentration. The final concentration of DMSO was 0.1%. Spheroid cells were incubated in compounds for 5 days. Then 20 μL WST-8 solution (DOJINDO, Cell Counting KIT-8) was added to each well. The plates were further incubated at 37° C. for 1.5 hours, and then absorbance at 450 nm was measured using a microplate reader. Each compound was tested in triplicate and the IC50 value was calculated using GraphPad Prism.
The IC50 values of for Compounds disclosed are listed in Table 2, A: ≤500 nM; B: >500 nM and ≤5 μM; C: >5 μM and ≤50 μM; and D: >50 μM.

Row | Structure (SMILES) | IC50
1 | CC1(CN)CCN(c2cnc(Sc3cccc(NC(=O)NS(=O)(=O)c4ccccc4F)c3Cl)c(N)n2)CC1 [Example 47, N-((3-((3-amino-5-(4-(aminomethyl)-4-methylpiperidin-1-yl)pyrazin-2-yl)thio)-2-chlorophenyl)carbamoyl)-2-fluorobenzenesulfonamide] | 500 to 5000 nM
2 | Cc1nc(N2CCC(C)(CN)CC2)c(CO)nc1Sc1ccnc(NC(=O)NS(=O)(=O)c2ccccc2)c1Cl [Example 9, N-((4-((5-(4-(aminomethyl)-4-methylpiperidin-1-yl)-6-(hydroxymethyl)-3-methylpyrazin-2-yl)thio)-3-chloropyridin-2-yl)carbamoyl)benzenesulfonamide] | ≤ 500 nM
3 | C[C@@H]1OCC2(CCN(c3cnc(Sc4ccnc(NC(=O)NS(=O)(=O)c5ccccc5F)c4Cl)cn3)CC2)[C@@H]1N [Example 52, N-((4-((5-((3S,4S)-4-amino-3-methyl-2-oxa-8-azaspiro[4.5]decan-8-yl)pyrazin-2-yl)thio)-3-chloropyridin-2-yl)carbamoyl)-2-fluorobenzenesulfonamide] | ≤ 500 nM
4 | C[C@@H]1OCC2(CCN(c3cnc(Sc4cccc(NC(=O)NS(=O)(=O)C5CCCC5)c4Cl)cn3)CC2)[C@@H]1N [Example 73, N-((3-((5-((3S,4S)-4-amino-3-methyl-2-oxa-8-azaspiro[4.5]decan-8-yl)pyrazin-2-yl)thio)-2-chlorophenyl)carbamoyl)cyclopentanesulfonamide] | ≤ 500 nM
5 | CC1(CN)CCN(c2cnc(Sc3ccnc(NC(=O)NS(=O)(=O)c4ccccc4)c3Cl)cn2)CC1 [Example 48, N-((4-((5-(4-(aminomethyl)-4-methylpiperidin-1-yl)pyrazin-2-yl)thio)-3-chloropyridin-2-yl)carbamoyl)benzenesulfonamide] | ≤ 500 nM
6 | C[C@@H]1OCC2(CCN(c3cnc(Sc4cccc(NC(=O)NS(=O)(=O)C5CCCCC5)c4Cl)cn3)CC2)[C@@H]1N [Example 69, N-((3-((5-((3S,4S)-4-amino-3-methyl-2-oxa-8-azaspiro[4.5]decan-8-yl)pyrazin-2-yl)thio)-2-chlorophenyl)carbamoyl)cyclohexanesulfonamide] | ≤ 500 nM
7 | COc1ccc(S(=O)(=O)NC(=O)Nc2cccc(Sc3cnc(N4CCC5(CC4)CO[C@@H](C)[C@H]5N)cn3)c2Cl)cn1 [Example 64, N-((3-((5-((3S,4S)-4-amino-3-methyl-2-oxa-8-azaspiro[4.5]decan-8-yl)pyrazin-2-yl)thio)-2-chlorophenyl)carbamoyl)-6-methoxypyridine-3-sulfonamide] | ≤ 500 nM
8 | C[C@@H]1OCC2(CCN(c3cnc(Sc4cccc(S(=O)(=O)NC(=O)NC5CCCC5)c4Cl)cn3)CC2)[C@@H]1N [Example 17, 3-((5-((3S,4S)-4-amino-3-methyl-2-oxa-8-azaspiro[4.5]decan-8-yl)pyrazin-2-yl)thio)-2-chloro-N-(cyclopentylcarbamoyl)benzenesulfonamide] | ≤ 500 nM
9 | C[C@@H]1OCC2(CCN(c3cnc(Sc4ccnc(NC(=O)NS(=O)(=O)C5CC5)c4Cl)cn3)CC2)[C@@H]1N [Example 57, N-((4-((5-((3S,4S)-4-amino-3-methyl-2-oxa-8-azaspiro[4.5]decan-8-yl)pyrazin-2-yl)thio)-3-chloropyridin-2-yl)carbamoyl)cyclopropanesulfonamide] | ≤ 500 nM
10 | C[C@@H]1OCC2(CCN(c3cnc(Sc4cccc(NC(=O)NS(=O)(=O)C5CCOCC5)c4Cl)cn3)CC2)[C@@H]1N [Example 68, N-((3-((5-((3S,4S)-4-amino-3-methyl-2-oxa-8-azaspiro[4.5]decan-8-yl)pyrazin-2-yl)thio)-2-chlorophenyl)carbamoyl)tetrahydro-2H-pyran-4-sulfonamide] | ≤ 500 nM

The remaining lines, values ahead:

Row | IC50 | Structure (SMILES)
11 | ≤ 500 nM | C[C@@H]1OCC2(CCN(c3cnc(Sc4cccc(NC(=O)NS(=O)(=O)N5CCCC5)c4Cl)cn3)CC2)[C@@H]1N [Example 13, N-((3-((5-((3S,4S)-4-amino-3-methyl-2-oxa-8-azaspiro[4.5]decan-8-yl)pyrazin-2-yl)thio)-2-chlorophenyl)carbamoyl)pyrrolidine-1-sulfonamide]
12 | ≤ 500 nM | C[C@@H]1OCC2(CCN(c3cnc(Sc4ccnc(NC(=O)NS(=O)(=O)c5cncc(F)c5)c4Cl)cn3)CC2)[C@@H]1N [Example 58, N-((4-((5-((3S,4S)-4-amino-3-methyl-2-oxa-8-azaspiro[4.5]decan-8-yl)pyrazin-2-yl)thio)-3-chloropyridin-2-yl)carbamoyl)-5-fluoropyridine-3-sulfonamide]
13 | ≤ 500 nM | C[C@@H]1OCC2(CCN(c3cnc(Sc4cccc(NS(=O)(=O)NC(=O)N5CCCC5)c4Cl)cn3)CC2)[C@@H]1N [Example 16, N—(N-(3-((5-((3S,4S)-4-amino-3-methyl-2-oxa-8-azaspiro[4.5]decan-8-yl)pyrazin-2-yl)thio)-2-chlorophenyl)sulfamoyl)pyrrolidine-1-carboxamide]
14 | ≤ 500 nM | C[C@@H]1OCC2(CCN(c3cnc(Sc4ccnc(NC(=O)NS(C)(=O)=O)c4Cl)cn3)CC2)[C@@H]1N [Example 77, N-((4-((5-((3S,4S)-4-amino-3-methyl-2-oxa-8-azaspiro[4.5]decan-8-yl)pyrazin-2-yl)thio)-3-chloropyridin-2-yl)carbamoyl)methanesulfonamide]
15 | ≤ 500 nM | Cc1noc(C)c1S(=O)(=O)NC(=O)Nc1cccc(Sc2cnc(N3CCC4(CC3)CO[C@@H](C)[C@H]4N)cn2)c1Cl [Example 65, N-((3-((5-((3S,4S)-4-amino-3-methyl-2-oxa-8-azaspiro[4.5]decan-8-yl)pyrazin-2-yl)thio)-2-chlorophenyl)carbamoyl)-3,5-dimethylisoxazole-4-sulfonamide]
16 | ≤ 500 nM | C[C@@H]1OCC2(CCN(c3cnc(Sc4cccc(NS(=O)(=O)NC(=O)Nc5ccccc5)c4Cl)cn3)CC2)[C@@H]1N [Example 12, ((3S,4S)-8-(5-((2-chloro-3-((N-(phenylcarbamoyl)sulfamoyl)amino)phenyl)thio)pyrazin-2-yl)-3-methyl-2-oxa-8-azaspiro[4.5]decan-4-yl)amine]
17 | ≤ 500 nM | C[C@@H]1OCC2(CCN(c3cnc(Sc4ccnc(NC(=O)NS(=O)(=O)c5ccccc5)c4F)cn3)CC2)[C@@H]1N [Example 56, N-((4-((5-((3S,4S)-4-amino-3-methyl-2-oxa-8-azaspiro[4.5]decan-8-yl)pyrazin-2-yl)thio)-3-fluoropyridin-2-yl)carbamoyl)benzenesulfonamide]
18 | ≤ 500 nM | C[C@@H]1OCC2(CCN(c3cnc(Sc4cccc(NC(=O)NS(=O)(=O)c5cccnc5)c4Cl)cn3)CC2)[C@@H]1N [Example 61, N-((3-((5-((3S,4S)-4-amino-3-methyl-2-oxa-8-azaspiro[4.5]decan-8-yl)pyrazin-2-yl)thio)-2-chlorophenyl)carbamoyl)pyridine-3-sulfonamide]
19 | ≤ 500 nM | C[C@@H]1OCC2(CCN(c3cnc(Sc4cccc(NC(=O)NS(=O)(=O)c5cnn(C)c5)c4Cl)cn3)CC2)[C@@H]1N [Example 79, N-((3-((5-((3S,4S)-4-amino-3-methyl-2-oxa-8-azaspiro[4.5]decan-8-yl)pyrazin-2-yl)thio)-2-chlorophenyl)carbamoyl)-1-methyl-1H-pyrazole-4-sulfonamide]
20 | ≤ 500 nM | C[C@@H]1OCC2(CCN(c3cnc(Sc4ccnc(NC(=O)NS(=O)(=O)c5cccc(F)c5)c4Cl)cn3)CC2)[C@@H]1N [Example 50, N-((4-((5-((3S,4S)-4-amino-3-methyl-2-oxa-8-azaspiro[4.5]decan-8-yl)pyrazin-2-yl)thio)-3-chloropyridin-2-yl)carbamoyl)-3-fluorobenzenesulfonamide]
21 | ≤ 500 nM | Cc1nc(N2CCC3(CC2)CO[C@@H](C)[C@H]3N)c(CO)nc1Sc1cccc(NC(=O)NS(=O)(=O)c2ccccc2)c1Cl [Example 11, N-((3-((5-((3S,4S)-4-amino-3-methyl-2-oxa-8-azaspiro[4.5]decan-8-yl)-6-(hydroxymethyl)-3-methylpyrazin-2-yl)thio)-2-chlorophenyl)carbamoyl)benzenesulfonamide]
22 | ≤ 500 nM | COc1ccc(S(=O)(=O)NC(=O)Nc2nccc(Sc3cnc(N4CCC5(CC4)CO[C@@H](C)[C@H]5N)cn3)c2Cl)cn1 [Example 54, N-((4-((5-((3S,4S)-4-amino-3-methyl-2-oxa-8-azaspiro[4.5]decan-8-yl)pyrazin-2-yl)thio)-3-chloropyridin-2-yl)carbamoyl)-6-methoxypyridine-3-sulfonamide]
23 | ≤ 500 nM | C[C@@H]1OCC2(CCN(c3cnc(Sc4cccc(NS(=O)(=O)NC(=O)c5ccccc5)c4Cl)cn3)CC2)[C@@H]1N [Example 80, N—(N-(3-((5-((3S,4S)-4-amino-3-methyl-2-oxa-8-azaspiro[4.5]decan-8-yl)pyrazin-2-yl)thio)-2-chlorophenyl)sulfamoyl)benzamide]
24 | ≤ 500 nM | Cc1nc(N2CCC3(CC2)CO[C@@H](C)[C@H]3N)c(CO)nc1Sc1ccnc(NC(=O)NS(=O)(=O)c2ccccc2)c1Cl [Example 59, N-((4-((5-((3S,4S)-4-amino-3-methyl-2-oxa-8-azaspiro[4.5]decan-8-yl)-6-(hydroxymethyl)-3-methylpyrazin-2-yl)thio)-3-chloropyridin-2-yl)carbamoyl)benzenesulfonamide]
